Assay results reported in US20020081661A1 (Synaptic Pharmaceutical Corporation, priority 1992, published 2002).
Like-named read-outs stand apart in the source and are kept apart here.

Legend:
[1] = biological target: T1, rat 5-HT4 receptor S10-95 (CG-8) (Rattus norvegicus, UniProt Q62758); assay: [3H]GR113808 binding (saturation and displacement), COS-7 membranes, rat clone CG-8; set-up: two individual full length cDNA clones, S10-87 and S10-95, were isolated; expressed in transfected cells; host or cells: COS-7 (transient, DEAE-dextran); conditions: for effect on [3H]GR113808 binding: CG-8, concentrations up to 1 μM
Protocol: (§2) Membrane Preparation: Membranes were prepared from transiently transfected COS-7 cells which were grown to 100% confluence. The cells were washed twice with phosphate-buffered saline, scraped from the culture dishes into 5 ml of ice-cold phosphate-buffered saline, and centrifuged at 200×g for 5 min at 4′. The pellet was resuspended in 2.5 ml of ice-cold Tris buffer (20 mM Tris -HCl, pH 7.4 at 23°, 5 mM EDTA), and homogenized by a Wheaton tissue grinder. The lysate was subsequently centrifuged at 200×g for 5 min at 4° to pellet large fragments which were discarded. The supernatant was collected and centrifuged at 40,000×g for 20 min at 4°. The pellet resulting from this centrifugation was washed once in ice-cold Tris wash buffer and finally resuspended in a final buffer containing 50 mM Tris-HCl and 0.5 mM EDTA, pH 7.4 at 23°. Membrane preparations were kept on ice and utilized within two hr for the radioligand binding assays.
(§3) The binding profile of drugs in competition experiments was established using 10-12 concentrations of compound. Incubation times were 30 min for both saturation and displacement studies.

[2] = biological target: T2, rat 5-HT4 receptor S10-87 (CG-7) (Rattus norvegicus, UniProt Q62758); assay: [3H]GR113808 binding (saturation and displacement), COS-7 membranes, rat clone CG-7; set-up: two individual full length cDNA clones, S10-87 and S10-95, were isolated; expressed in transfected cells; host or cells: COS-7 (transient, DEAE-dextran); conditions: for effect on [3H]GR113808 binding: CG-7, concentrations up to 1 μM
Protocol: as §2, §3

[3] = biological target: T3, human 5-HT4 receptor S10-95 (CG-17) (Homo sapiens, UniProt Q13639); assay: [3H]5-HT displacement binding, human CG-17 clone; conditions: for fold higher affinity for the human CG-17 clone: human CG-17 compared with rat clones; for activity at the CG-17 clone: [3H]5-HT displacement, up to concentration of 1 μM
T3 construct: Isolation of the full length human S10-95 cDNA clone; expressed in transfected cells; host or cells: COS-7 (transient, DEAE-dextran)
Protocol: as §2
(§4) The binding profile of drugs in competition experiments was established using 7 concentrations of compound. Incubation times were 30 min for both saturation and displacement studies. […] Binding was initiated by the addition of 50 μl membrane homogenates (10-20 μg). The reaction was terminated by rapid filtration through presoaked (0.5% polyethyleneimine) filters using 48R Cell Brandel Harvester (Gaithersburg, Md.). Subsequently, filters were washed for 5 sec with ice cold buffer (50 mM Tris HCL, pH 7.4 at 4° C.), dried and placed into vials containing 2.5 ml of Readi-Safe (Beckman, Fullerton, Calif.), and radioactivity was measured using a Beckman LS 6500C liquid scintillation counter. […] Binding data were analyzed by computer-assisted nonlinear regression analysis (Accufit and Accucomp, Lundon Software, Chagrin Falls, Ohio).

[4] = biological target: T4, rat 5-HT4 (CG-8) receptor (Rattus norvegicus, UniProt Q62758); assay: cAMP formation in intact Cos-7 cells transiently expressing CG-8; type: cell-based; conditions: for I. A. (intrinsic activity): CG-8, maximum response normalized to 5-HT maximum = 1.0; for agonist / antagonist character: CG-8, cAMP response; for effect on responses to 5-HT: CG-8, 10 μM
T4 construct: two individual full length cDNA clones, S10-87 and S10-95, were isolated; expressed in transfected cells; host or cells: COS-7 (transient, DEAE-dextran)
Protocol: (§1) Measurement of cAMP Formation: The transiently transfected Cos-7 cells were incubated in Dulbecco's modified Eagle's medium, 5 mM theophylline, 10 mM Hepes (4-[2-Hydroxyethyl]-1-piperazineethanesulfonic acid), 10 μM pargyline, and/or appropriate concentrations of antagonists for 20 minutes at 37° C., 5% CO2. […] The media was aspirated and the reaction stopped by the addition of 100 mM HCl. The plates were stored at 4° C. for 15 minutes, centrifuged for 5 minutes, 500×g to pellet cellular debris, and the supernatant aliquotted and stored at −20° C. prior to assessment of cAMP formation by radioimmunoassay (cAMP Radioimmunoassay kit, Advanced Magnetics, Cambridge, Mass.). Radioactivity was quantitated using a Packard COBRA Auto Gamma Counter equipped with data reduction software. Functional data was fitted to a four parameter logistic equation to obtain response parameters (EC50, Emax, nH; Inplot, GraphPad, San Diego, Calif.).

[5] = biological target: T2, rat 5-HT4 receptor S10-87 (CG-7); assay: [3H]5-HT radioligand binding (saturation and displacement), membranes of Cos-7 cells transiently expressing rat S10-87 (CG-7)
Protocol: as §2, §4

[6] = biological target: T5, rat 5-HT4 (CG-7) receptor (Rattus norvegicus, UniProt Q62758); assay: cAMP formation in intact Cos-7 cells transiently expressing CG-7; type: cell-based; conditions: for I. A. (intrinsic activity): CG-7, maximum response normalized to 5-HT maximum = 1.0; for agonist / antagonist character: CG-7, cAMP response; for effect on responses to 5-HT: CG-7, 10 μM
T5 construct: two individual full length cDNA clones, S10-87 and S10-95, were isolated; expressed in transfected cells; host or cells: COS-7 (transient, DEAE-dextran)
Protocol: as §1

[7] = biological target: T6, 5-HT4 receptor, rat oesophagus (Rattus norvegicus, UniProt Q62758); conditions: Grossmann et al., 1993; cited from earlier work
T6 construct: host or cells: rat oesophagus

[8] = biological target: T1, rat 5-HT4 receptor S10-95 (CG-8); assay: biochemical
Protocol: For transient expression, Cos-7 cells were transfected by the DEAE-Dextran method, using 1 μg of DNA /10^6 cells (Warden, D. and H. V. Thorne, 1968).
Membrane Preparation: Membranes were prepared from transiently transfected COS-7 cells which were grown to 100% confluence. The cells were washed twice with phosphate-buffered saline, scraped from the culture dishes into 5 ml of ice-cold phosphate-buffered saline, and centrifuged at 200×g for 5 min at 4′. The pellet was resuspended in 2.5 ml of ice-cold Tris buffer (20 mM Tris -HCl, pH 7.4 at 23°, 5 mM EDTA), and homogenized by a Wheaton tissue grinder. The lysate was subsequently centrifuged at 200×g for 5 min at 4° to pellet large fragments which were discarded. The supernatant was collected and centrifuged at 40,000×g for 20 min at 4°. The pellet resulting from this centrifugation was washed once in ice-cold Tris wash buffer and finally resuspended in a final buffer containing 50 mM Tris-HCl and 0.5 mM EDTA, pH 7.4 at 23°. Membrane preparations were kept on ice and utilized within two hr for the radioligand binding assays. Protein concentrations were determined by the method of Bradford (1976) using bovine serum albumin as the standard.
The binding profile of drugs in competition experiments was established using 7 concentrations of compound. Incubation times were 30 min for both saturation and displacement studies. […] Binding was initiated by the addition of 50 μl membrane homogenates (10-20 μg). The reaction was terminated by rapid filtration through presoaked (0.5% polyethyleneimine) filters using 48R Cell Brandel Harvester (Gaithersburg, Md.). Subsequently, filters were washed for 5 sec with ice cold buffer (50 mM Tris HCL, pH 7.4 at 4° C.), dried and placed into vials containing 2.5 ml of Readi-Safe (Beckman, Fullerton, Calif.), and radioactivity was measured using a Beckman LS 6500C liquid scintillation counter. […] Binding data were analyzed by computer-assisted nonlinear regression analysis (Accufit and Accucomp, Lundon Software, Chagrin Falls, Ohio). […]

[9] = biological target: T7, 5-HT4 receptors, human brain (Homo sapiens, UniProt Q13639); conditions: Waeber et al. (1993); cited from earlier work
T7 construct: host or cells: human brain tissue

[10] = biological target: T3, human 5-HT4 receptor S10-95 (CG-17); assay: [3H]GR113808 saturation binding, human clone CG-17; conditions: human CG-17, [3H]GR113808 0.005-[…], preliminary; read-out: Kd (saturation analysis)
Protocol: as §2, §3

[11] = biological target: T8, 5-HT4 receptors, guinea pig brain tissue (Cavia porcellus, UniProt O70528); conditions: Waeber et al., 1993, Grossmann et al.; cited from earlier work
T8 construct: host or cells: guinea pig brain tissue

[12] = CG-7, 0.2-0.4 nM [3H]GR113808, single experiment, read-out: Affinity estimate K1
[13] = CG-8, stimulation of basal cAMP release
[14] = Affinity constants (Ki), CG-7, 10 nM [3H]5-HT, mean ± SEM, >1000 estimated from one point displacement at 1 uM
[15] = K1 (nM), CG-7, binding data using [3H]5-HT, Table 4
[16] = CG-7, stimulation of basal cAMP release
[17] = CG-8, 0.2-0.4 nM [3H]GR113808, single experiment, read-out: Affinity estimate K1
[18] = CG-8, stimulation of basal cAMP release, means ± S.E.M. of three experiments, read-out: EC50
[19] = CG-7, stimulation of basal cAMP release, means ± S.E.M. of three experiments, read-out: EC50
[20] = read-out: Ks (apparent dissociation constant of antagonist)

T1 sequence (Q62758 whole entry): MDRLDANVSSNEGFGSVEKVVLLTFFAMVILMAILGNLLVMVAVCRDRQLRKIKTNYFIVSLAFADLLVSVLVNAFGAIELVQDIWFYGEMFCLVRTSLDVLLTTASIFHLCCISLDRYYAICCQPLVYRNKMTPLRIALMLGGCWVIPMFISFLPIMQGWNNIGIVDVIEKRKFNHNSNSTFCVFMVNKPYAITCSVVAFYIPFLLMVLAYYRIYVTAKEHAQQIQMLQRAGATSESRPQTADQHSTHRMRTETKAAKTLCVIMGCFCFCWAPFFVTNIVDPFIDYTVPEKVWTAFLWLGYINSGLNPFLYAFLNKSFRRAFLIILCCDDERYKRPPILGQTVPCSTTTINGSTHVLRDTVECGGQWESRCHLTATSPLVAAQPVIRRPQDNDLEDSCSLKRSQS
T4 sequence (Q62758 whole entry): as above
T3 sequence (Q13639 whole entry): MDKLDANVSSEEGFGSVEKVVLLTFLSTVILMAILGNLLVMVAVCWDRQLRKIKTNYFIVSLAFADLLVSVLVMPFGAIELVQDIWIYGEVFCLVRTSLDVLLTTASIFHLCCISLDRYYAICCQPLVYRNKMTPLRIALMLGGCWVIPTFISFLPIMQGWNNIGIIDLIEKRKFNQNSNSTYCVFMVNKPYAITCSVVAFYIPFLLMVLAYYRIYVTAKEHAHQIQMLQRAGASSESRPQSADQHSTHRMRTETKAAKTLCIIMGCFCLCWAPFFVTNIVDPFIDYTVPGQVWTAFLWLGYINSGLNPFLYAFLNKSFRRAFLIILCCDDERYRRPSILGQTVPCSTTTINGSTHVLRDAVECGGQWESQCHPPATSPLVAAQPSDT
T5 sequence (Q62758 1-387 isoform Q62758-2): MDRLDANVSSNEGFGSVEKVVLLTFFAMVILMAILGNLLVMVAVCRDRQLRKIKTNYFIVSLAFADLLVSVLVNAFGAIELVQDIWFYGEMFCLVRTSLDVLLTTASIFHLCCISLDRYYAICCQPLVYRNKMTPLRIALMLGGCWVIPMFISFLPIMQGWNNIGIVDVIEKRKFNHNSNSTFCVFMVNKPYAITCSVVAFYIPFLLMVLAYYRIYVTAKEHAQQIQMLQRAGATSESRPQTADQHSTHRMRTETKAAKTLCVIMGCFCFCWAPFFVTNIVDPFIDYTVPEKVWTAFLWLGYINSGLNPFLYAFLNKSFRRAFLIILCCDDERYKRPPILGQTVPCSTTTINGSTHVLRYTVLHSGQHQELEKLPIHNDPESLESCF
T2 sequence (Q62758 1-387 isoform Q62758-2): as above
T6 sequence (Q62758 whole entry): as the sequence (Q62758 whole entry) above
T7 sequence (Q13639 whole entry): as the sequence (Q13639 whole entry) above
T8 sequence (O70528 whole entry): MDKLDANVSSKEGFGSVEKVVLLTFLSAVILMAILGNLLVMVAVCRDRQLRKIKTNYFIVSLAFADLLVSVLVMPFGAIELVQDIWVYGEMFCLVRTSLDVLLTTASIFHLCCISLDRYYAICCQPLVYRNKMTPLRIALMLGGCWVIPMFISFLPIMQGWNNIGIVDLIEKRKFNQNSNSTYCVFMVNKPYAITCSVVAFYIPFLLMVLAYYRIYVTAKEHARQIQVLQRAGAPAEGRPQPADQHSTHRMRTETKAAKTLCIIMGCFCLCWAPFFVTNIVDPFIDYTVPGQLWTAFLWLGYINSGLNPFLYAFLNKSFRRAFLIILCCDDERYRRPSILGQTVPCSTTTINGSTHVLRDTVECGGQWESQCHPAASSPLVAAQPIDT

Compound: NCCc1c[nH]c2ccc(C(N)=O)cc12 [5-CT, 5-carboxyamidotryptamine]
- Ki [1]: > 10000 nM
- Ki [2, 12]: > 10000 nM
- Ki [3]: > 10000 nM
- EC50 [4]: 1410 nM
- I. A. (intrinsic activity) [4]: 1.2
- fold lower affinity than 5-HT [4, 13]: about 30 fold
- Ki [5, 14]: > 1000 nM
- Ki [5, 15]: > 1000 nM
- Ki ([5]; Kf values estimated, S10, [3H]5-HT displacement, low affinity compounds): > 1000 nM
- EC50 [6]: 5570 nM
- I. A. (intrinsic activity) [6]: 0.85
- times less potent than 5-HT [6, 16]: ~200 fold

Compound: NCCc1c[nH]c2ccc(O)cc12 [5-HT, serotonin]
- BH (percentage of high affinity sites) ([1]; CG-8, [3H]GR113808): 24%
- nH (Hill coefficient) ([1]; CG-8, [3H]GR113808): nH = 0.67
- BH (percentage of high affinity sites) ([2]; CG-7, [3H]GR113808): 22%
- nH (Hill coefficient) ([2]; CG-7, [3H]GR113808): nH = 0.62
- stimulation of basal cAMP release ([4]; CG-8, 1 μM, single dose preliminary study): about 30 fold
- maximum cAMP release ([4]; CG-8, FIG. 10): 0.57±0.04 pmol/ml/10 min
- I. A. (intrinsic activity) [4]: 1.0
- stimulation of basal cAMP release ([6]; CG-7, 1 μM, single dose preliminary study): about 30 fold
- maximum cAMP release ([6]; CG-7, FIG. 9): 0.42±0.03 pmol/ml/10 min
- I. A. (intrinsic activity) [6]: 1.0

Compound: COc1ccc2[nH]cc(CCN)c2c1 [5-MeOT, 5-methoxytryptamine]
- Ki [1]: 518 nM
- nH (Hill coefficient) ([1]; CG-8, [3H]GR113808): nH = 0.66
- Ki ([2]; Affinity estimate K1, CG-7, 0.2-0.4 nM [3H]GR113808, single experiment): 438 nM
- BH (percentage of high affinity sites) ([2]; CG-7, [3H]GR113808): 17%
- nH (Hill coefficient) ([2]; CG-7, [3H]GR113808): nH = 0.57
- Ki ([2]; KH (affinity for the high affinity state), CG-7, [3H]GR113808): 14 nM
- Ki ([2]; read-out: KL (affinity for the low affinity state), CG-7, [3H]GR113808): 658 nM
- Ki [3]: 71 nM
- fold less potent at the human CG-17 ([3]; human CG-17 compared to the rat clones): approximately 3 fold
- fold higher affinity for the human CG-17 clone [3]: ~5 fold
- EC50 [4]: 31 ± 13 nM
- I. A. (intrinsic activity) [4]: 1.0
- fold lower affinity than 5-HT [4, 13]: approximately equipotent
- Ki [5, 14]: 27.5 ± 5 nM
- Ki [5, 15]: 27 ± 5 nM
- EC50 [6]: 21 ± 6 nM
- I. A. (intrinsic activity) [6]: 1.0
- times less potent than 5-HT [6, 16]: approximately equipotent

Compound: CCCN(CCC)C1CCc2cccc(O)c2C1 (centres unmarked) [8-OH-DPAT, 8-hydroxy-2-(di-n-propylamino)tetralin]
- effect on [3H]GR113808 binding [1]: no effect
- effect on [3H]GR113808 binding [2]: no effect
- Ki [3]: > 1000 nM
- activity at the CG-17 clone [3]: inactive
- Ki [5]: > 1000 nM
- Ki [5, 14]: > 1000 nM

Compound: COc1cc(N)c(Cl)cc1C(=O)NC1CCN(CCCOc2ccc(F)cc2)CC1OC (centres unmarked) [Cisapride, cisapride]
- Ki [1, 17]: 84 nM
- BH (percentage of high affinity sites) ([1]; CG-8, [3H]GR113808): 11%
- nH (Hill coefficient) ([1]; CG-8, [3H]GR113808): nH = 0.83
- Ki ([1]; CG-8, [3H]GR113808, read-out: KH (affinity for the high affinity state)): 2.7 nM
- Ki ([1]; read-out: KL (affinity for the low affinity state), CG-8, [3H]GR113808): 105 nM
- agonist / antagonist character [4]: partial agonists
- I. A. (intrinsic activity) [4]: 1.4
- EC50 [4, 18]: 413 ± 199 nM
- Ki [5, 14]: 10.9 ± 0.3 nM
- Ki [5, 15]: 11 ± 0.3 nM
- agonist / antagonist character [6]: partial agonists
- I. A. (intrinsic activity) [6]: 1.2
- times less potent than 5-HT [6, 16]: about 10 fold
- EC50 [6, 19]: 191 ± 26 nM

Compound: Cn1cc(C(=O)OCC2CCN(CCNS(C)(=O)=O)CC2)c2ccccc21 [GR113808]
- affinity from functional receptor assays [7]: about 0.3 nM

Compound: CN1[C@@H]2CC[C@H]1C[C@@H](OC(=O)c1c[nH]c3ccccc13)C2 [ICS 205930]
- Ki [8]: 138 ± 26 nM
- Ki [1, 17]: 529 nM
- fold lower affinity in the functional assay as compared to the binding experiments ([4]; CG-8): approximately 6 fold
- agonist / antagonist character [4]: silent antagonist
- I. A. (intrinsic activity) [4]: 0
- Kd [4, 20]: 607 ± 30 nM
- Ki [5, 14]: 115 ± 12 nM
- Ki [5, 15]: 115 ± 12 nM
- fold lower affinity in the functional assay as compared to the binding experiments ([6]; CG-7): ~10 fold
- agonist / antagonist character [6]: silent antagonist
- I. A. (intrinsic activity) [6]: 0
- Kd [6, 20]: 962 ± 244 nM

Compound: O=C(c1ccc(F)cc1)C1CCN(CCn2c(=O)[nH]c3ccccc3c2=O)CC1 [Ketanserin, ketanserin]
- effect on [3H]GR113808 binding [1]: no effect
- effect on [3H]GR113808 binding [2]: no effect
- activity at the CG-17 clone [3]: inactive
- Ki ([3]; read-out: Ki): > 1000 nM
- Ki [5]: > 1000 nM
- Ki [5, 14]: > 1000 nM

Compound: CNS(=O)(=O)Cc1ccc2[nH]cc(CCN(C)C)c2c1 [Sumatriptan, sumatriptan]
- effect on [3H]GR113808 binding [1]: no effect
- effect on [3H]GR113808 binding [2]: no effect
- activity at the CG-17 clone [3]: inactive
- Ki ([3]; read-out: Ki): > 1000 nM
- Ki [5]: > 1000 nM
- Ki [5, 14]: > 1000 nM

Compound: Cn1cc(C(=O)OCC2CCN(CCNS(C)(=O)=O)CC2)c2ccccc21 [[^3H]GR113808]
- Kd [9]: 0.23 to 0.37 nM
- Kd [10]: 0.2 nM
- Kd [11]: 0.13 to 0.2 nM

Compound: CCN(CC)C(=O)[C@@H]1C=C2c3cccc4[nH]cc(c34)C[C@H]2N(C)C1 [d-LSD]
- Ki [1, 17]: > 10000 nM
- Ki [2, 12]: > 10000 nM

Compound: CSc1ccc2c(c1)C(N1CCN(C)CC1)Cc1ccccc1S2 (centres unmarked) [methiothepin]
- effect on responses to 5-HT [4]: not affected
- effect on responses to 5-HT [6]: not affected

Compound: O=C(CCCN1CCC2(CC1)C(=O)NCN2c1ccccc1)c1ccc(F)cc1 [spiperone]
- effect on responses to 5-HT [4]: not affected
- effect on responses to 5-HT [6]: not affected

Compound: CC(N)Cc1c[nH]c2ccc(O)cc12 (stereo not drawn) [α-Me-5-HT]
- Ki [1, 17]: 1860 nM
- Ki [2, 12]: 2260 nM
- Ki ([3]; human CG-17, 10 nM [3H]5-HT, single experiment, >1,000 from one point displacement at 1 μM, read-out: Ki): 1.6 nM
- fold higher affinity for the human CG-17 clone [3]: approximately 100 fold
- I. A. (intrinsic activity) [4]: 1.0
- fold lower affinity than 5-HT [4, 13]: approximately 20 fold
- EC50 [4, 18]: 1040 nM
- I. A. (intrinsic activity) [6]: 0.90
- times less potent than 5-HT [6, 16]: about 10 fold
- EC50 [6, 19]: 250 ± 91 nM
